Laboratory results published in the supplement of paper PMC10307832.

Tests used:
Experiment in all cases: relative viability (nuclei count vs DMSO), 5 days (fraction); higher = more cells survive
GSK-J4 + Pemetrexed = compound: CCOC(=O)CCNc1cc(N2CCc3ccccc3CC2)nc(-c2ccccn2)n1 [GSK-J4] + Nc1nc2[nH]cc(CCc3ccc(C(=O)N[C@@H](CCC(=O)O)C(=O)O)cc3)c2c(=O)[nH]1 [Pemetrexed] (partner 0.2 µM)
How it was run: (§1)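 Five library-drug doses in √10 steps were combined with a fixed anchor-drug dose, or a single drug was given alone, by pin tool to lung cancer cell lines in 1536-well plates the day after seeding. Nuclei were stained and counted after 5 days. Relative viability is the nuclei count in treated wells over that in vehicle wells, taken as the median of duplicate plates.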

AZ3146 + Vorinostat = compound: CN1CCC(CC1)OC2=CC(=C(C=C2)NC3=NC=C4C(=N3)N(C(=O)N4C)C5CCCC5)OC [AZ3146] + O=C(CCCCCCC(=O)Nc1ccccc1)NO [Vorinostat] (partner 1 µM)
How it was run: as §1

AZ3146 + Pictilisib = compound: CN1CCC(CC1)OC2=CC(=C(C=C2)NC3=NC=C4C(=N3)N(C(=O)N4C)C5CCCC5)OC [AZ3146] + CS(=O)(=O)N1CCN(Cc2cc3nc(-c4cccc5[nH]ncc45)nc(N4CCOCC4)c3s2)CC1 [Pictilisib] (partner 1 µM)
How it was run: as §1

GSK-J4 + Olaparib = compound: CCOC(=O)CCNc1cc(N2CCc3ccccc3CC2)nc(-c2ccccn2)n1 [GSK-J4] + O=C(c1cc(Cc2n[nH]c(=O)c3ccccc23)ccc1F)N1CCN(C(=O)C2CC2)CC1 [Olaparib] (partner 8 µM)
How it was run: as §1

| Cell Line | relative viability (GSK-J4 + Pemetrexed; first compound 0.5 µM) | relative viability (GSK-J4 + Pemetrexed; first compound 1.581 µM) | relative viability (GSK-J4 + Pemetrexed; first compound 5 µM) | relative viability (GSK-J4 + Pemetrexed; first compound 15.81 µM) | relative viability (GSK-J4 + Pemetrexed; first compound 50 µM) | relative viability (AZ3146 + Vorinostat; first compound 0.08 µM) | relative viability (AZ3146 + Vorinostat; first compound 0.253 µM) | relative viability (AZ3146 + Vorinostat; first compound 0.8 µM) | relative viability (AZ3146 + Vorinostat; first compound 2.53 µM) | relative viability (AZ3146 + Vorinostat; first compound 8 µM) | relative viability (AZ3146 + Pictilisib; first compound 0.08 µM) | relative viability (AZ3146 + Pictilisib; first compound 0.253 µM) | relative viability (AZ3146 + Pictilisib; first compound 0.8 µM) | relative viability (AZ3146 + Pictilisib; first compound 2.53 µM) | relative viability (AZ3146 + Pictilisib; first compound 8 µM) | relative viability (GSK-J4 + Olaparib; first compound 0.5 µM) | relative viability (GSK-J4 + Olaparib; first compound 1.581 µM) | relative viability (GSK-J4 + Olaparib; first compound 5 µM) | relative viability (GSK-J4 + Olaparib; first compound 15.81 µM) | relative viability (GSK-J4 + Olaparib; first compound 50 µM) |
| --- | --- | --- | --- | --- | --- | --- | --- | --- | --- | --- | --- | --- | --- | --- | --- | --- | --- | --- | --- | --- |
| NCI-H2087 | 0.622 | 0.667 | 0.635 | 0.621 | 0.742 | 0.649 | 0.505 | 0.838 | 0.668 | 0.367 | 1.14 | 0.926 | 0.669 | 0.968 | 0.847 | 0.525 | 0.535 | 0.439 | 0.542 | 0.371 |
| NCI-H2126 | 0.716 | 0.593 | 0.733 | 0.621 | 0.555 | 0.504 | 0.743 | 0.709 | 0.835 | 0.66 | 0.41 | 0.483 | 0.465 | 0.517 | 0.496 | 0.912 | 0.895 | 0.966 | 0.855 | 0.762 |
| NCI-H2170 | 0.237 | 0.292 | 0.243 | 0.252 | 0.273 | 0.815 | 0.763 | 0.854 | 0.867 | 0.751 | 0.297 | 0.315 | 0.327 | 0.297 | 0.243 | 0.533 | 0.538 | 0.652 | 0.536 | 0.391 |
| NCI-H2228 | 0.335 | 0.328 | 0.342 | 0.36 | 0.364 | 0.589 | 0.695 | 0.874 | 0.956 | 0.674 | 0.412 | 0.306 | 0.349 | 0.282 | 0.314 | 0.555 | 0.608 | 0.583 | 0.728 | 0.903 |
| NCI-H2347 | 0.417 | 0.411 | 0.378 | 0.394 | 0.442 | 0.523 | 0.562 | 0.574 | 0.717 | 0.596 | 0.604 | 0.542 | 0.654 | 1.12 | 0.422 | 0.587 | 0.597 | 0.554 | 0.675 | 0.437 |
| NCI-H2405 | 1.01 | 1 |  | 1 | 1.02 | 0.799 | 0.969 | 1.04 | 1.14 | 0.927 | 0.533 |  | 0.418 | 0.451 | 0.58 | 0.849 | 0.836 |  | 0.815 | 0.777 |
| NCI-H3122 | 0.205 | 0.201 | 0.201 | 0.206 | 0.19 | 0.92 | 0.969 | 1.08 | 1.07 | 0.932 | 0.613 | 0.614 | 0.555 | 0.639 | 0.684 | 0.539 | 0.578 | 0.668 | 0.575 | 0.504 |
